Experimental findings from patent publication US9845310B2 (priority 2015, dated 2017) are described below.

The experiment relates to naive Sprague Dawley rat hearts. As to conditions: ex vivo isolated perfused rat heart, percent change over vehicle; for Isolated Heart Assay dP/dtmax(%): contractility; for Isolated Heart Assay dP/dtmin(%): relaxation (lusitropic).

As to `COc1cnc([C@H](O)[C@@H](C)S(=O)(=O)Nc2nnc(-c3cccnc3)n2-c2c(OC)cccc2OC)cn1` (single isomer, unassigned) [Example 706.0, (1S,2R)-N-(4-(2,6-dimethoxyphenyl)-5-(3-pyridinyl)-4H-1,2,4-triazol-3-yl)-1-hydroxy-1-(5-methoxy-2-pyrazinyl)-2-propanesulfonamide or (1R,2S)-N-(4-(2,6-dimethoxyphenyl)-5-(3-pyridinyl)-4H-1,2,4-triazol-3-yl)-1-hydroxy-1-(5-methoxy-2-pyrazinyl)-2-propanesulfonamide], the “Isolated Heart Assay dP/dtmax(%)” value is on record as 9.1% and the “Isolated Heart Assay dP/dtmin(%)” value is 4.0%.

As for `COc1ncnc(OC)c1-n1c(NS(=O)(=O)[C@@H](C)[C@H](C)c2ncc(Cl)cn2)nnc1-c1cccnc1` [Example 709.0, (2S,3R)-3-(5-chloro-2-pyrimidinyl)-N-(4-(4,6-dimethoxy-5-pyrimidinyl)-5-(3-pyridinyl)-4H-1,2,4-triazol-3-yl)-2-butanesulfonamide], the “Isolated Heart Assay dP/dtmax(%)” value was found to be 6.0% and the “Isolated Heart Assay dP/dtmin(%)” value was 3.0%.

With `COc1cccc(OC)c1-n1c(NS(=O)(=O)[C@@H](C)[C@H](OC)c2ncc(F)cn2)nnc1-c1cncc(C)c1` [Example 80.0, (1R,2S)-N-(4-(2,6-dimethoxyphenyl)-5-(5-methyl-3-pyridinyl)-4H-1,2,4-triazol-3-yl)-1-(5-fluoro-2-pyrimidinyl)-1-methoxy-2-propanesulfonamide], the “Isolated Heart Assay dP/dtmax(%)” value came to 5.0% and the “Isolated Heart Assay dP/dtmin(%)” value is recorded as −2.7%.

For the compound `COc1cccc(-c2nnc(NS(=O)(=O)[C@@H](C)[C@H](C)c3ncc(C)cn3)n2-c2c(F)cccc2F)n1` [Example 784.0, (2S,3R)-N-(4-(2,6-difluorophenyl)-5-(6-methoxy-2-pyridinyl)-4H-1,2,4-triazol-3-yl)-3-(5-methyl-2-pyrimidinyl)-2-butanesulfonamide], the “Isolated Heart Assay dP/dtmax(%)” value came to 4.3% and the “Isolated Heart Assay dP/dtmin(%)” value was 1.93%.

With `COc1cccc(OC)c1-n1c(NS(=O)(=O)[C@@H](C)[C@@H](OC(C)C)c2ncc(C)cn2)nnc1-c1cccnc1` (stereo in doubt) [Example 627.0, (1R,2R)-N-(4-(2,6-dimethoxyphenyl)-5-(3-pyridinyl)-4H-1,2,4-triazol-3-yl)-1-(1-methylethoxy)-1-(5-methyl-2-pyrimidinyl)-2-propanesulfonamide, (1S,2S)-N-(4-(2,6-dimethoxyphenyl)-5-(3-pyridinyl)-4H-1,2,4-triazol-3-yl)-1-(1-methylethoxy)-1-(5-methyl-2-pyrimidinyl)-2-propanesulfonamide], the “Isolated Heart Assay dP/dtmax(%)” value was “No effect” and the “Isolated Heart Assay dP/dtmin(%)” value is given as “No effect”.

As to `COc1cccc(-c2nnc(NS(=O)(=O)[C@@H](C)[C@H](C)c3ncc(Cl)cn3)n2-c2c(OC)ncnc2OC)n1` [Example 710.0, (2S,3R)-3-(5-chloro-2-pyrimidinyl)-N-(4-(4,6-dimethoxy-5-pyrimidinyl)-5-(6-methoxy-2-pyridinyl)-4H-1,2,4-triazol-3-yl)-2-butanesulfonamide], the “Isolated Heart Assay dP/dtmax(%)” value is on record as 12.7% and the “Isolated Heart Assay dP/dtmin(%)” value is reported as 10.3%.

On to `COc1cccc(OC)c1-n1c(NS(=O)(=O)[C@H](C)[C@@H](OC)c2cnc(C)cn2)nnc1-c1cncc(C)c1` (single isomer, unassigned) [Example 571.0, (1S,2R)-N-(4-(2,6-dimethoxyphenyl)-5-(5-methyl-3-pyridinyl)-4H-1,2,4-triazol-3-yl)-1-methoxy-1-(5-methyl-2-pyrazinyl)-2-propanesulfonamide or (1R,2S)-N-(4-(2,6-dimethoxyphenyl)-5-(5-methyl-3-pyridinyl)-4H-1,2,4-triazol-3-yl)-1-methoxy-1-(5-methyl-2-pyrazinyl)-2-propanesulfonamide], for which the “Isolated Heart Assay dP/dtmax(%)” value came to 13.3% and the “Isolated Heart Assay dP/dtmin(%)” value is 18.8%.

Regarding `COc1cccc(-c2nnc(NS(=O)(=O)[C@@H](C)[C@H](OC)c3ncc(C)cn3)n2-c2cccnc2OC)n1` (atropisomer, axis not shown) [Example 741.0, (1R,2S, P)-1-methoxy-N-(4-(2-methoxy-3-pyridinyl)-5-(6-methoxy-2-pyridinyl)-4H-1,2,4-triazol-3-yl)-1-(5-methyl-2-pyrimidinyl)-2-propanesulfonamide and (1R,2S, M)-1-methoxy-N-(4-(2-methoxy-3-pyridinyl)-5-(6-methoxy-2-pyridinyl)-4H-1,2,4-triazol-3-yl)-1-(5-methyl-2-pyrimidinyl)-2-propanesulfonamide], the “Isolated Heart Assay dP/dtmax(%)” value is 1.4% and the “Isolated Heart Assay dP/dtmin(%)” value stood at 6.6%.

`COc1cccc(OC)c1-n1c(NS(=O)(=O)[C@@H](C)[C@H](O)c2ncc(F)cn2)nnc1-c1cccnc1` [Example 82.0, (1R,2S)-N-(4-(2,6-dimethoxyphenyl)-5-(3-pyridinyl)-4H-1,2,4-triazol-3-yl)-1-(5-fluoro-2-pyrimidinyl)-1-hydroxy-2-propanesulfonamide]: the “Isolated Heart Assay dP/dtmax(%)” value came out at 13.5% and the “Isolated Heart Assay dP/dtmin(%)” value turned out to be 16.2%.

Regarding `COc1cccc(OC)c1-n1c(NS(=O)(=O)[C@H](C)[C@@H](O)c2cnc(C)cn2)nnc1-c1cccnc1` [Example 614.0, (1S,2R)-N-(4-(2,6-dimethoxyphenyl)-5-(3-pyridinyl)-4H-1,2,4-triazol-3-yl)-1-hydroxy-1-(5-methyl-2-pyrazinyl)-2-propanesulfonamide], the “Isolated Heart Assay dP/dtmax(%)” value is given as 6.6% and the “Isolated Heart Assay dP/dtmin(%)” value came out at 6.2%.

On to `CCO[C@H](c1ncc(Cl)cn1)[C@H](C)S(=O)(=O)Nc1nnc(-c2cccnc2)n1-c1c(OC)cccc1OC` [Example 430.0, (1R,2S)-1-(5-chloropyrimidin-2-yl)-N-(4-(2,6-dimethoxyphenyl)-5-(pyridin-3-yl)-4H-1,2,4-triazol-3-yl)-1-ethoxypropane-2-sulfonamide], for which the “Isolated Heart Assay dP/dtmax(%)” value came to 10.0% and the “Isolated Heart Assay dP/dtmin(%)” value was found to be 9.7%.

Turning to `CCO[C@H](c1ncc(Cl)cn1)[C@H](C)S(=O)(=O)Nc1nnc(-c2cncc(C)c2)n1-c1c(OC)cccc1OC` [Example 610.0, (1R,2S)-1-(5-chloro-2-pyrimidinyl)-N-(4-(2,6-dimethoxyphenyl)-5-(5-methyl-3-pyridinyl)-4H-1,2,4-triazol-3-yl)-1-ethoxy-2-propanesulfonamide], the “Isolated Heart Assay dP/dtmax(%)” value turned out to be 6.0% and the “Isolated Heart Assay dP/dtmin(%)” value is recorded as “No effect”.

Regarding `COc1cnc([C@@H](C)[C@H](C)S(=O)(=O)Nc2nnc(-c3cccnc3)n2-c2c(OC)ncnc2OC)cn1` [Example 803.0, (2S,3R)-N-(4-(4,6-dimethoxy-5-pyrimidinyl)-5-(3-pyridinyl)-4H-1,2,4-triazol-3-yl)-3-(5-methoxy-2-pyrazinyl)-2-butanesulfonamide], the “Isolated Heart Assay dP/dtmax(%)” value worked out at 11.4% and the “Isolated Heart Assay dP/dtmin(%)” value was determined as 10.0%.

In the case of `CCO[C@H](c1ncc(C)cn1)[C@H](C)S(=O)(=O)Nc1nnc(-c2cncc(C)c2)n1-c1c(OC)cccc1OC` [Example 252.0, (1R,2S)-N-(4-(2,6-dimethoxyphenyl)-5-(5-methylpyridin-3-yl)-4H-1,2,4-triazol-3-yl)-1-ethoxy-1-(5-methylpyrimidin-2-yl)propane-2-sulfonamide], the “Isolated Heart Assay dP/dtmax(%)” value was 15.7% and the “Isolated Heart Assay dP/dtmin(%)” value stood at 16.3%.

Turning to `CCO[C@H](c1ncc(F)cn1)[C@H](C)S(=O)(=O)Nc1nnc(-c2cncc(C)c2)n1-c1c(OC)cccc1OC` [Example 79.0, (1R,2S)-N-(4-(2,6-dimethoxyphenyl)-5-(5-methyl-3-pyridinyl)-4H-1,2,4-triazol-3-yl)-1-ethoxy-1-(5-fluoro-2-pyrimidinyl)-2-propanesulfonamide], the “Isolated Heart Assay dP/dtmax(%)” value turned out to be 10.0% and the “Isolated Heart Assay dP/dtmin(%)” value came to 5.0%.

For the compound `Cc1cnc([C@@H](C)[C@H](C)S(=O)(=O)Nc2nnc(-c3cncc(C)c3)n2-c2c(F)cccc2F)nc1` (single isomer, unassigned) [Example 826.0, (2S,3R)-N-(4-(2,6-difluorophenyl)-5-(5-methylpyridin-3-yl)-4H-1,2,4-triazol-3-yl)-3-(5-methylpyrimidin-2-yl)butane-2-sulfonamide or (2R,3S)-N-(4-(2,6-difluorophenyl)-5-(5-methylpyridin-3-yl)-4H-1,2,4-triazol-3-yl)-3-(5-methylpyrimidin-2-yl)butane-2-sulfonamide], the “Isolated Heart Assay dP/dtmax(%)” value turned out to be 6.02% and the “Isolated Heart Assay dP/dtmin(%)” value stood at 5.16%.

Turning to `COc1cccc(OC)c1-n1c(NS(=O)(=O)[C@@H](C)[C@H](OC)c2ncc(Cl)cn2)nnc1-c1cccnc1` [Example 591.0, (1R,2S)-1-(5-chloro-2-pyrimidinyl)-N-(4-(2,6-dimethoxyphenyl)-5-(3-pyridinyl)-4H-1,2,4-triazol-3-yl)-1-methoxy-2-propanesulfonamide], the “Isolated Heart Assay dP/dtmax(%)” value came out at 8.0% and the “Isolated Heart Assay dP/dtmin(%)” value is recorded as 0.0%.

Regarding `COc1cccc(OC)c1-n1c(NS(=O)(=O)CCc2ccc(F)cc2C#N)nnc1-c1cncc(C)c1` [Example 621.0, 2-(2-cyano-4-fluorophenyl)-N-(4-(2,6-dimethoxyphenyl)-5-(5-methyl-3-pyridinyl)-4H-1,2,4-triazol-3-yl)ethanesulfonamide], the “Isolated Heart Assay dP/dtmax(%)” value is reported as 7.4% and the “Isolated Heart Assay dP/dtmin(%)” value is given as 6.0%.

Consider `COc1ncnc(OC)c1-n1c(NS(=O)(=O)[C@@H](C)[C@H](OC)c2ccc(Cl)cn2)nnc1-c1cccnc1` (single isomer, unassigned) [Example 711.0, (1R,2S)-1-(5-chloro-2-pyridinyl)-N-(4-(4,6-dimethoxy-5-pyrimidinyl)-5-(3-pyridinyl)-4H-1,2,4-triazol-3-yl)-1-methoxy-2-propanesulfonamide or (1S,2R)-1-(5-chloro-2-pyridinyl)-N-(4-(4,6-dimethoxy-5-pyrimidinyl)-5-(3-pyridinyl)-4H-1,2,4-triazol-3-yl)-1-methoxy-2-propanesulfonamide], for which the “Isolated Heart Assay dP/dtmax(%)” value came out at 9.4% and the “Isolated Heart Assay dP/dtmin(%)” value turned out to be 1.1%.
